Laboratory results: patent US11554084B2, “Compositions incorporating avobenzone-calix[8]-PO3H2 complex” (University of Cincinnati, priority 2020, dated 2023)

Assays:
rat cell lines = conditions: cited from earlier work
human cell lines = conditions: cited from earlier work
[1] = once exposed to sun; cited from earlier work
[2] = Neutron reflectometry (NR) of tethered POPC / POPC-d31 lipid bilayer membranes incubated with the substance and after rinse; type: physicochemical; conditions: for Peak of avobenzone CVO from bilayer center / Surface volume density: co-refined POPC-d31 and POPC
Description: The interaction of avobenzone and calix[8]-PO3H2 was tested with single-membrane POPC (1-palmitoyl-2-oleoyl-sn-glycero-3-phosphocholine) tethered lipid bilayer membranes (tBLMs). Solvent-immersed tBLMs allowed for a characterization of the membrane before and after addition of avobenzone and calix[8]-PO3H2 from solution, thus mimicking the encounter of those substances by the membrane in the body. This differentiates tBLMs from conventionally used stacked lipid bilayer model systems in air. The chemical structure of the glycerophospholipid POPC consists of a zwitterionic phosphatidylcholine headgroup linked to a glycerol, which is ester-bound to two fatty acid groups—palmitic acid (C16:0) and oleic acid (C18:1). This fatty acid composition mimics that of phospholipids mainly found in the eukaryotic cell membrane, including keratinocytes. In addition to phospholipids, native eukaryotic membranes also contain glycolipids, sterols and various proteins, which are not included in the current simplified model system.
Neutron Reflectometry (NR) experiments were conducted with hydrogenated and deuterated POPC bilayers. Both data sets were simultaneously analyzed to obtain one structural model. NR measurements were performed with the CGD-Magik reflectometer at the NIST Center for Neutron Research (NCNR). Reflectivity curves were recorded for momentum transfer values 0.01≤qz≤0.25 Å^−1. For each measurement, adequate counting statistics were obtained after 5-7 h. The NCNR fluids cell allows for in situ solvent exchange; therefore, subsequent measurements were performed on the same sample area. The entire flow cell was maintained at room temperature (RT). Solvent exchange was accomplished by rinsing ˜10 ml of water through the cell (volume ˜1.3 ml) using a syringe.
A set of NR experiments was conducted with a hydrogenated POPC bilayer and another identical set of experiments with a deuterated POPC-d31 bilayer. After measurement of the as-prepared bilayer in H2O and D2O, avobenzone was added to the sample cell at a concentration of 100 μM dissolved in H2O and D2O. NR measurements were conducted while the bilayer was in contact with either solution. The sample was measured again after rinsing with H2O and D2O, respectively. Data for both bilayers were co-refined sharing conserved model parameters across data sets, in particular those associated with the volume profile of avobenzone. […] An identical set of measurements were performed with a 100 μM complex of 1:1 avobenzone:calix[8]-PO3H2 instead of pure avobenzone.
1D-component volume occupancy (CVO) profiles along the lipid bilayer normal were obtained. Bilayer fit parameters were the hydrocarbon thickness for each bilayer subsection, the bilayer completeness, and the thickness of the sub-membrane space. One roughness parameter was applied to all distributions. The thin layer of native silicon oxide was modelled by a single distribution with individual roughness and thickness parameters. Hermite splines defined by control points that were on average 15 Å apart were used to model the CVO profiles of avobenzone and calix[8]-PO3H2. The number of control points was iteratively refined during model optimization for each CVO profile. Fit parameters associated with each control point were a volume occupancy, a deviation from equidistant separation, and (for the CVO profile of the complex) a nSLD (neutron scattering length density) value between those of avobenzone and calix[8]-PO3H2. Such a variable nSLD per control point allowed us to separate individual CVO profiles for avobenzone (average nSLD ρ=1.37×10^−6 Å^−2) and calix[8]-PO3H2 (ρ=2.73×10^−6 […]). The exchange of labile protons in isotopically different buffers affects the nSLD of molecular components and was taken into account during data analysis. Optimization of model parameters was performed using the ga_refl and Refl1D software packages developed at the NCNR. […]

[3] = avobenzone alone, 100 μM incubation

Row | Structure (SMILES) | Toxicity towards rat cell lines (rat cell lines) | Toxicity towards human cell lines (human cell lines) | Duration of photoprotection [1] | Peak of avobenzone CVO from bilayer center [2, 3] | Surface volume density [2, 3] | 1 avobenzone per n lipids in outer leaflet ([2]; avobenzone alone, Rinse) | Peak of avobenzone CVO from bilayer center ([2]; avobenzone alone, Rinse) | Surface volume density ([2]; avobenzone alone, Rinse) | Penetration of the lipid bilayer (in words) ([2]; interacts at hydrocarbon/headgroup interface of the substrate-distal leaflet)
1 | O=P(O)(O)c1cc2c(O)c(c1)Cc1cc(P(=O)(O)O)cc(c1O)Cc1cc(P(=O)(O)O)cc(c1O)Cc1cc(P(=O)(O)O)cc(c1O)Cc1cc(P(=O)(O)O)cc(c1O)Cc1cc(P(=O)(O)O)cc(c1O)Cc1cc(P(=O)(O)O)cc(c1O)Cc1cc(P(=O)(O)O)cc(c1O)C2 [calix[8]-PO3H2, p-phosphonated calix[8]arene] | non-toxic | non-toxic | – | – | – | – | – | – | –
2 | COc1ccc(C(=O)CC(=O)c2ccc(C(C)(C)C)cc2)cc1 [avobenzone, 1-(4-methoxyphenyl)-3-(4-tertbutylphenyl)-propane-1,3-dione] | – | – | 30 min | 10±3 Å | 3.0±0.5 Å^3/Å^2 | ~1 avobenzone per 2.1 lipids in outer leaflet | 7±3 Å | 3.8±0.4 Å^3/Å^2 | without penetrating the bilayer to the substrate-proximal leaflet
